# Results published in patent publication US10507248B2, “Hydrophobic core carrier compositions for delivery of therapeutic agents, methods of making and using the same” (PharmaIn Corporation, priority 2005, dated 2019).
# How the values were obtained:
# [1] = system: streptozotocin diabetic rats; experiment: Treatment of streptozotocin diabetic rats for 4 weeks; type: in vivo, Sprague-Dawley rats
# Experimental: FIG. 45. […] Prior to treatment the blood glucose levels taken every 2 days for 6 days prior to treatment are between 300-600 mg/dl. After randomization the average blood sugar level of each group are between 421 and 433 mg/dl. Rats were treated every 2 days subcutaneously. […] Non-fasting sugar levels taken every 2 days were added together to obtain area under the curve (AUC) for each animal to average out cyclical variability in each animal.
# FIG. 46. This is a graph showing the average body weight of streptozotocin diabetic rats at the end of the 4 week treatment period (+/−standard deviation; n=4) that started at 13th day after diabetes induction with 60 mg/kg streptozotocin. The starting weights of all animals prior to streptozotocin treatment are within 240 to 260 grams.
# FIG. 47. […] The islets were located and the number of BrDU positive nuclei in each islet was counted.
# Briefly for this in vivo protocol, 12-week old male Sprague-Dawley (HSD) rats (Harlan, Indianapolis, Ind.) were housed at 23±1° C. in a 12:12-h light:dark cycle, and were given access to food and water ad libitium (diet LM-485, Teklad, Madison, Wis.). […] Non-fasting blood sugar levels were monitored daily from day 2 by tail-tip snip blood collection (5 ul) and blood sugar levels were measured using Glucometer (Ascensia Elite, Bayer Co. Mishawaka, Ind.) and test strips (Bayer Co. Mishawaka, Ind.). […]
# [2] = in vivo; cited from earlier work
# DPP-9 = DPP-9 (Homo sapiens, UniProt Q86TI2); settings: concentrations approximating those from therapeutic doses; cited from earlier work
# DPP-9, sequence (Q86TI2 whole entry): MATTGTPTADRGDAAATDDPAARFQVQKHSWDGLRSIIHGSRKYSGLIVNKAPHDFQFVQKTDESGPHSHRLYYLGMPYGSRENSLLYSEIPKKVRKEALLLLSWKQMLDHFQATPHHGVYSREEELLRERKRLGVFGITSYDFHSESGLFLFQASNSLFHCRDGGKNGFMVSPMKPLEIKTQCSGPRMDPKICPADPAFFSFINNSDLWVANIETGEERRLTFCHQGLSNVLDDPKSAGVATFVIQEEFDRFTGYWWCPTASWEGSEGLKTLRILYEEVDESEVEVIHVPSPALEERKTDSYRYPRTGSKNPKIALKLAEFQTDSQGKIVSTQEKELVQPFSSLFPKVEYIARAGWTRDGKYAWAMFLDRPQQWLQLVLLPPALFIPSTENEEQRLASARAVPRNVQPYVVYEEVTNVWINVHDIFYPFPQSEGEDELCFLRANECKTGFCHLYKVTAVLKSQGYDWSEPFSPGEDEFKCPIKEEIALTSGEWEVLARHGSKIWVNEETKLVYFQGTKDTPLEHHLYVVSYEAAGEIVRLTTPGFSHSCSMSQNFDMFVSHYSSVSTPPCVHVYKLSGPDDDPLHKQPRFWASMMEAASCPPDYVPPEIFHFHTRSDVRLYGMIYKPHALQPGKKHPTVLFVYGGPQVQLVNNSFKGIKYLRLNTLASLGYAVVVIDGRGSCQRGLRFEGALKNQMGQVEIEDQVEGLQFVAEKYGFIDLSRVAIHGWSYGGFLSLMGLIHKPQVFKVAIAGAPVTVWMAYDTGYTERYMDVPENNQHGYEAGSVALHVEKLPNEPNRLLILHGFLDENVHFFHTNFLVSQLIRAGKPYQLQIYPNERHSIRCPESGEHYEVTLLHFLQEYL
# DPP-8 = DPP-8 (Homo sapiens, UniProt Q6V1X1); settings: concentrations approximating those from therapeutic doses; cited from earlier work
# DPP-8, sequence (Q6V1X1 whole entry): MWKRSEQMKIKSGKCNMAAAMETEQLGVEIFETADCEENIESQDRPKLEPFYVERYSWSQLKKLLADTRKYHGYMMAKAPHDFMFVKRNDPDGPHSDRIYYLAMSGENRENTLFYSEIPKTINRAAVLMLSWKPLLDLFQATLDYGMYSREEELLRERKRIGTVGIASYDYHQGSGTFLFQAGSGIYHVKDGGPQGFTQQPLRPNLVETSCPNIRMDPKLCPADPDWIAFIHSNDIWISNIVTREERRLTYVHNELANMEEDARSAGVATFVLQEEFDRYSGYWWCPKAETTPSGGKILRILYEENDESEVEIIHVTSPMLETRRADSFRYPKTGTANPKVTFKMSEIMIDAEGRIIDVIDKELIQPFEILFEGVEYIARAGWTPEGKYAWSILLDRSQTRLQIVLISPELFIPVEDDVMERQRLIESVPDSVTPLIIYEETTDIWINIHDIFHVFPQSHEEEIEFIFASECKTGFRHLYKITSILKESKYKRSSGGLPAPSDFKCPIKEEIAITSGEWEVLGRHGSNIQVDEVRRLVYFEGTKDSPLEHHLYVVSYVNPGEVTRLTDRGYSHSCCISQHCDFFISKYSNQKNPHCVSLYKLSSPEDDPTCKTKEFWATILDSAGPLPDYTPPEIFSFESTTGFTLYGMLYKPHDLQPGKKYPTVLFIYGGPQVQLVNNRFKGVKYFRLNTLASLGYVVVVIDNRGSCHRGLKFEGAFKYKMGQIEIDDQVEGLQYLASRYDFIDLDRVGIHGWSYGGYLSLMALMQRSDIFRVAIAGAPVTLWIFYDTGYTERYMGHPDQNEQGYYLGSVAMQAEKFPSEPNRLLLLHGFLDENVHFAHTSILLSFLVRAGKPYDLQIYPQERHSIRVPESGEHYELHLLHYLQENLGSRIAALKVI
# [3] = native peptides; cited from earlier work
molecule,measurement,setting,value
"CC[C@H](C)[C@H](NC(=O)[C@H](Cc1ccccc1)NC(=O)[C@H](CCC(=O)O)NC(=O)[C@H](CCCCN)NC(=O)[C@H](C)NC(=O)[C@H](C)NC(=O)[C@H](CCC(N)=O)NC(=O)CNC(=O)[C@H](CCC(=O)O)NC(=O)[C@H](CC(C)C)NC(=O)[C@H](Cc1ccc(O)cc1)NC(=O)[C@H](CO)NC(=O)[C@H](CO)NC(=O)[C@@H](NC(=O)[C@H](CC(=O)O)NC(=O)[C@H](CO)NC(=O)[C@@H](NC(=O)[C@H](Cc1ccccc1)NC(=O)[C@@H](NC(=O)CNC(=O)[C@H](CCC(=O)O)NC(=O)[C@H](C)NC(=O)[C@@H](N)Cc1c[nH]cn1)[C@@H](C)O)[C@@H](C)O)C(C)C)C(=O)N[C@@H](C)C(=O)N[C@@H](Cc1c[nH]c2ccccc12)C(=O)N[C@@H](CC(C)C)C(=O)N[C@H](C(=O)N[C@@H](CCCCN)C(=O)NCC(=O)N[C@@H](CCCNC(=N)N)C(N)=O)C(C)C [GLP-1, GLP-1 (7-36 amide)]",BrdU positive nuclei (cell divisions) in the islets,"[1]; pancreas histology after 4 weeks, versus PBS or empty carrier",significantly more cell divisions
same,body weight at the end of the 4 week treatment,"[1]; s.c. every 2 days for 4 weeks, 20 ug GLP-1",greater variability in response
COc1ccc2[nH]c([S+]([O-])Cc3ncc(C)c(OC)c3C)nc2c1 (stereo not drawn) [Omeprazole],LD50,[2],> 4000 mg/kg
"N[C@@H](CC(=O)N1CCn2c(nnc2C(F)(F)F)C1)Cc1cc(F)c(F)cc1F [Sitagliptin, 7-[(3R)-3-amino-1-oxo-4-(2,4,5-trifluorophenyl)butyl]-5,6,7,8-tetrahydro-3-(trifluoromethyl)-1,2,4-triazolo[4,3-a]pyrazine phosphate (1:1) monohydrate]",inhibition of DPP-9 activity in vitro,DPP-9,does not inhibit
same,inhibition of DPP-8 activity in vitro,DPP-8,does not inhibit
native gastrin: native peptide hormone with short biological half-life,biological half-life,[3],few minutes
